In patent US20240148757A1, “USE OF DIHYDROOROTATE DEHYDROGENASE (DHODH) INHIBITORS TO TARGET FERROPTOSIS IN CANCER THERAPY” (BOARD OF REGENTS, THE UNIVERSITY OF TEXAS SYSTEM, priority 2021, published 2024):

Columns and labels:
GPX4^high HT-1080 cells = experiment: Cell viability / cell death (ferroptosis) in HT-1080 cells; type: cell-based, human; conditions: 24 hours; for protection against GPX4 inhibition (RSL3 or ML162)-induced ferroptosis: DHODH WT, pretreatment 10 μM
Experimental: (§1) Briefly, cells were seeded onto 96-well plates at a density of 2×10^4 per well. The next day, cells were treated with GPX4 or DHODH inhibitors for 4 hours. Subsequently, cells exposed to 10 μl CCK-8 reagent (100 μl medium per well) for 1 hour at 37° C., 5% CO2 in an incubator. The absorbance at a wavelength of 450 nm was determined using a FLUOstar Omega microplate reader (BMG Labtech).
(§2) For propidium iodide-staining, cells were seeded at a density of 50% confluence into 12-well plates. The next day, cells were treated with different reagents. To measure cell death, the cells were collected (including floating dead cells), stained with 5 μg/ml propidium iodide and the percentage of the propidium iodide-positive dead cell population was analyzed using the flow cytometer BD Accuri C6 (BD Biosciences) and an FL2 detector. A minimum of 10,000 single cells were analyzed per well and all experiments were carried out at least in triplicate.

DHODH KO HT-1080 cells [1] = experiment: Cell viability / cell death (ferroptosis) in DHODH KO HT-1080 cells; type: cell-based, human; conditions: for protection against GPX4 inhibition (RSL3 or ML162)-induced ferroptosis: DHODH KO, pretreatment 10 μM, 24 hours
Experimental: Knockout of DHODH, ACSL4 and COQ2 in human cell lines was performed using single guide RNAs (sgRNAs) and doxycycline (DOX)-inducible CRISPR-Cas9 expression system as described in our recent publication (Lee, H., et al., Nature cell biology 22, 225-234 (2020)). sgRNAs were cloned into the lentiviral lentiGuide vector. LentiGuide clones were transfected into HEK293T cells with psPAX2 packaging plasmid and pMD2.G expressing plasmid. Cells were infected with lentivirus with 0.8 μg/ml polybrene, selected with puromycin (1 μg/ml, InvivoGen), blasticidin (2 μg/ml, InvivoGen) or hygromycin B (2 μg/ml, InvivoGen) for 3 days and then single cells were sorted into 96-well plates. Single cells were maintained in DMEM with 10% (v/v) FBS and 1% (v/v) penicillin/streptomycin at 37° C. in an incubator with 20% O2 and 5% CO2 for 3-4 weeks and each colony was verified by western blot to confirm the target gene deletion. To generate cell lines with DOX-inducible CRISPR-Cas9-mediated gene deletion, cells were infected with lentivirus, selected with puromycin (1 μg/ml, InvivoGen), blasticidin (2 μg/ml, InvivoGen) or hygromycin B (2 μg/ml, InvivoGen) for 2 days and then single cells were sorted into 96-well plates. Once cell lines were established, 1 μg/ml of DOX (Sigma-Aldrich) was added to the media to induce target gene deletion for 48 hours after selection; then cells were cultured in DOX-free media for subsequent analyses.
as §1, with “Viable cells were measured using Cell Counting Kit-8 (CCK-8, Dojindo) as previously described (Koppula, P., Zhang, Y., Shi, J., Li, W. & Gan, B, J Biol Chem 292, 14240-14249 (2017); Liu, X. & Gan, B, Cell Cycle 15, 3471-3481 (2016)). Briefly,” for “Briefly,”
as §2, with “Cell death was measured by propidium iodide (Roche) staining using a flow cytometer, as previously described (Dai, F., et al., Proc Natl Acad Sci USA 114, 3192-3197 (2017); Zhang, Y., et al., Cancer Res 80, 2243-2256 (2020)). For” for “For”

DHODH KO HT-1080 cells [2] = experiment: Mitochondrial lipid peroxidation (mito-BODIPY) in DHODH KO HT-1080 cells; type: cell-based, human; conditions: pretreatment 10 μM, 24 hours
[3] = tested on: multiple cancer cell lines; experiment: Global metabolomic analysis; type: cell-based, human; conditions: short-term (2-hour) treatment, 10 μM
Experimental: (§3) Metabolomic analysis was performed as previously described (Liu, X., et al., Nat Cell Biol 22, 476-486 (2020)). Cells were seeded on 35 mm culture plates at a density sufficient to ensure approximately 70-80% confluence at the time of extraction. For metabolic tracer analysis of pyrimidine synthesis, HT-1080 cells were treated with RSL3 and/or Lip-1 for 2 hours and then were shifted to drug-free media containing amide-^15N-glutamine (this time point is defined as 0 hour). Metabolites were extracted at the indicated time points for subsequent analyses. Metabolites were extracted by rapidly aspirating the culture medium and then adding 0.6 mL of an 80% methanol: 20% water mixture at dry ice temperature. The plates were incubated on dry ice for 15 minutes before the cell material was scraped into eppendorf tubes pre-chilled on ice. The cell debris was pelleted by centrifugation at 13,000 RCF for 5 minutes at 4° C. and the supernatant was transferred to a fresh tube and stored on dry ice until analysis. Just prior to analysis, 500 μL of extract was dried under nitrogen gas flow and then resuspended in 100 μL water.
(§4) The complete platform consists of an Accela 1250 HPLC system, Accela Open Autosampler, MayLab Mistraswitch column oven and Exactive orbitrap mass spectrometer, controlled by the Xcalibur 3.0.63 software package. Chromatography was performed with a Phenomenex Synergi Hydro-RP column (100×2 mm, 2.5 μm particle size). Solvent A is 10 mM tributylamine and […] acetic acid in water; Solvent B is methanol. The gradient is: 0 min, 0% B; 2.5 min, 0% B; 5 min, 20% B; 7.5 min, 20% B; 13 min, 55% B; 15.5 min, 95% B; 18.5 min, 95% B; 19 min, 0% B; 25 min, 0% B. The injection volume was 10 μL. The column temperature was set to 40° C., and the flow rate was 200 μL/min. The Exactive was operated in negative ionization mode with an electrospray ionization interface. The instrument parameters are as follows: sheath gas flow rate 30 (arbitrary units), aux gas flow rate 10 (arbitrary units), sweep gas flow rate 3 (arbitrary units), spray voltage 3 kV, capillary temperature 325° C., capillary voltage −25 V, tube lens voltage −50 V. The scan range was set to 80-1000 m/z, with a maximum inject time of 250 ms, resolution of 100,000 at 1 Hz, and AGC (automatic gain control) target 1E6. The data were analyzed using the MAVEN software suite57 with signal intensity determined as the Peak Area (Top). For metabolic labeling experiments, the data were corrected to account for the natural abundance of nitrogen-15 using IsoCorrectoR (Heinrich, P., et al., Sci Rep 8, 17910 (2018)).

GPX4^low NCI-H226 cells = experiment: Cell viability / cell death (ferroptosis) in NCI-H226 cells; type: cell-based, human; conditions: pretreatment 48 hours (C-Asp, DHO, OA 100 μM; uridine 50 μM), RSL3 4 hours
Experimental: as §1, with “Viable cells were measured using Cell Counting Kit-8 (CCK-8, Dojindo) as previously described (Koppula, P., Zhang, Y., Shi, J., Li, W. & Gan, B, J Biol Chem 292, 14240-14249 (2017); Liu, X. & Gan, B, Cell Cycle 15, 3471-3481 (2016)). Briefly,” for “Briefly,”
as §2, with “Cell death was measured by propidium iodide (Roche) staining using a flow cytometer, as previously described (Dai, F., et al., Proc Natl Acad Sci USA 114, 3192-3197 (2017); Zhang, Y., et al., Cancer Res 80, 2243-2256 (2020)). For” for “For”

NCI-H226 cells = experiment: Intracellular metabolite levels upon supplementation; type: in vitro ADME, human; conditions: for intracellular levels upon supplementation: 100 μM, 48 hours
Experimental: as §3, §4

[4] = tested on: GPX4^high and GPX4^low cancer cell lines; experiment: Cell viability in panel of GPX4^high and GPX4^low cancer cell lines; type: cell-based, human; conditions: supplementation 100 μM 48 hours, RSL3 4 hours
Experimental: as §1, with “Viable cells were measured using Cell Counting Kit-8 (CCK-8, Dojindo) as previously described (Koppula, P., Zhang, Y., Shi, J., Li, W. & Gan, B, J Biol Chem 292, 14240-14249 (2017); Liu, X. & Gan, B, Cell Cycle 15, 3471-3481 (2016)). Briefly,” for “Briefly,”

intracellular levels upon supplementation (NCI-H226 cells)	Molecule	protection against GPX4 inhibition (RSL3 or ML162)-induced ferroptosis (GPX4^high HT-1080 cells)	protection against GPX4 inhibition (RSL3 or ML162)-induced ferroptosis (DHODH KO HT-1080 cells [1])	suppression of GPX4 inhibitor-induced mitochondrial lipid peroxidation (DHODH KO HT-1080 cells [2])	effect of supplementation on cellular sensitivity to GPX4 inhibition (RSL3) (GPX4^low NCI-H226 cells)	other results
–	COC1=C(OC)C(=O)C(CCCCCCCCCC[P+](c2ccccc2)(c2ccccc2)c2ccccc2)=C(C)C1=O [mitoQ, [10-(4,5-dimethoxy-2-methyl-3,6-dioxo-1,4-cyclohexadien-1-yl)decyl] triphenyl-phosphonium, monomethanesulfonate]	provided limited protection	–	–	–	–
–	CC1(C)CC(NC(=O)C[P+](c2ccccc2)(c2ccccc2)c2ccccc2)CC(C)(C)N1[O] [mito-TEMPO, 2-(2,2,6,6-tetramethylpiperidin-1-oxyl-4-ylamino)-2-oxoethyl) triphenylphosphonium chloride]	–	provided substantial protection	could be suppressed	–	–
–	COc1ccc(N(C(=O)CCl)C(C(=O)NCCc2ccccc2)c2cccs2)cc1Cl (stereo not shown) [ML162]	–	–	–	–	C-Asp level [3]: marked depletion; uridine level [3]: concomitant accumulation; sensitization by DHODH deletion to compound-induced lipid peroxidation and ferroptosis (DHODH KO HT-1080 cells [1]; uridine-supplemented conditions): markedly sensitized
only moderately increased	NC(=O)N[C@@H](CC(=O)O)C(=O)O [C-Asp, N-Carbamoyl-L-aspartate]	–	–	–	did not affect ferroptosis sensitivity	cell permeability (NCI-H226 cells): largely impermeable to cells
–	N-benzyloxycarbonyl-val-ala-asp(o-me) fluoromethyl ketone [Z-VAD-FMK]	–	–	–	–	rescue of DHODH inhibition-induced cell death (GPX4^high HT-1080 cells; BQR, pretreatment Lip-1 or ZVF 10 μM): the opposite was observed
–	CC1(C)CCCC(C)(C)N1[O] [TEMPO, 2,2,6,6-tetramethyl-1-piperidinyloxy]	rescued	rescued	could be suppressed	–	–
–	COc1c(O)c(C)c(CCCCCCCCCC[P+](c2ccccc2)(c2ccccc2)c2ccccc2)c(O)c1OC.CS(=O)(=O)[O-] [mitoQH2, [10-(2,5-dihydroxy-3,4-dimethoxy-6-methylphenyl)decyl] triphenyl-phosphonium, monomethanesulfonate]	provided limited protection	significantly protected	significantly protected	–	–
drastically increased	O=C1CC(C(=O)O)NC(=O)N1 (stereo not shown) [DHO, dihydroorotate]	–	–	–	protected cells from	protecting (DHO) or sensitizing (OA) effect in GPX4^low versus GPX4^high cell lines [4]: much more pronounced

Molecule	intracellular levels upon supplementation (NCI-H226 cells)	protection against GPX4 inhibition (RSL3 or ML162)-induced ferroptosis (GPX4^high HT-1080 cells)	protection against GPX4 inhibition (RSL3 or ML162)-induced ferroptosis (DHODH KO HT-1080 cells [1])	suppression of GPX4 inhibitor-induced mitochondrial lipid peroxidation (DHODH KO HT-1080 cells [2])	effect of supplementation on cellular sensitivity to GPX4 inhibition (RSL3) (GPX4^low NCI-H226 cells)	other results
O=C(O)c1cc(=O)[nH]c(=O)[nH]1 [OA, orotate]	drastically increased	–	–	–	sensitized cells to	protecting (DHO) or sensitizing (OA) effect in GPX4^low versus GPX4^high cell lines [4]: much more pronounced
